Measured values published in patent publication US11414442B2, “ARF6 inhibitors and related methods” (Navigen, Inc., priority 2017, dated 2022).
Values joined by “and” are separate entries in the source; they are usually repeats but may differ in a detail not shown here. Equal entries are not always repeated. “Also recorded” adds a separate entry of the source. Structures can show the parent of a compound that is named as a salt. Where two headings read alike, the source gives them in different places. Where no end group is shown, it is not given here. The star is where a group is joined. Myristoyl = CCCCCCCCCCCCCC(=O)*

How the values were obtained:
[1] = biological target: T1, ARF6 (Homo sapiens, UniProt P62330); test: ARF6 inhibition, biochemical fluorometric nucleotide exchange assay
T1 sequence (P62330 whole entry, species assumed): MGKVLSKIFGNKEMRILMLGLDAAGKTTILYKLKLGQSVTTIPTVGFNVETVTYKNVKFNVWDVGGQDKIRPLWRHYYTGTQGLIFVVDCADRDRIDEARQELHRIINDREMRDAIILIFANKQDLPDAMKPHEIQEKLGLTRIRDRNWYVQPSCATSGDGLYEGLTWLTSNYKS
From the text: These ARF6 inhibitors were discovered using a high-throughput biochemical, fluorometric nucleotide exchange assay to screen 100,000 compounds from a commercially available compound library. Medicinal chemistry optimization efforts have also been conducted. In some embodiments, the clinical potential of the discovered small molecule ARF6 inhibitors can be limited by poor solubility. Accordingly, the synthesis and development of water soluble prodrugs of ARF6 inhibitors can be advantageous. […]

[2] = Solubility in water and PBS pH 7.4 (Tables 1 and 2); assay type: physicochemical
[3] = test system: LPS-induced acute lung injury (ALI); test: Mouse model of LPS-induced ALI, BALF cell count and BALF protein; assay type: in vivo; settings: for percent reduction in LPS-induced increase in BALF cell count / percent reduction in LPS-induced increase in BALF protein: mean ± SEM
Method: LPS was instilled into the trachea of anesthetized mice. […] The efficacy endpoints were total cell counts and total protein in BALF. All studies were conducted using vehicle negative controls and dexamethasone (5 mg/kg IP at T=0 and 6) as a positive control. Data were analyzed by 1-way ANOVA followed by Tukey's multiple comparison test (GRAPHPAD PRISM® software, version 6.05). […] Reductions in BALF total protein were also observed. […]

[4] = test system: Acinetobacter baumannii (AB) HUMC1; assay type: in vivo, mouse
Method: Briefly, CD-1 male mice were made neutropenic with 200 mg/kg cyclophosphamide and 250 mg/kg cortisone acetate (in 0.05% Tween 80) on Days −2 and +3. On Day 0, neutropenic mice were infected with Acinetobacter baumannii (AB) HUMC1 (virulent strain; see Luo G, et al. J Antimicrob Chemother. 2012; 67:1439-45 and Luo G, et al. PloS one. 2012; 7:e29446) via inhalation. Treatment with “NAV-” compound was initiated at three hours post infection.
Mice can be made neutropenic by injecting them with cyclophosphamide (200 mg/kg IP) and cortisone acetate (250 mg/kg, subcutaneously) on day −2 and +3 relative to infection. To induce AB pneumonia, neutropenic mice can be infected by aerosolizing AB into an inhalational chamber for one hour through a nebulizer as previously described (see Luo G, et al. J Antimicrob Chemother. 2012; 67:1439-45). Dosing and frequency of treatment can be dictated by the PK and ALI studies conducted in Example 6. Placebo mice can receive vehicle. […] Treatment can begin three hours after infection and continue through Day +7, and survival of mice (the primary endpoint) can be followed for 28 days post-infection. Each group may comprise 10 mice and each experiment may be repeated once (for a total of 20 mice per treatment group) to detect a three-day difference in survival by the Log Rank test (α=0.05).

[5] = PK of NAV-A after IV dosing of NAV-B to rats; assay type: in vivo, rat
Method: (§1) The PK profile of NAV-A was determined following intravenous (IV) and intraperitoneal (IP) administration of prodrug NAV-B to rats and mice, respectively. […] In this experiment, only the appearance and PK profile of NAV-A was followed, using an established LC/MS method. […] Of note was the very rapid appearance of NAV-A in plasma of the rats receiving NAV-B IV; the highest plasma concentration observed was at five minutes post-dose, the first time point measured. […] Near peak plasma levels of NAV-A were observed within 30 minutes.

[6] = PK of NAV-A after IP dosing of NAV-B to mice; assay type: in vivo, mouse; settings: six-hour period after IP NAV-B 43 mg/kg
Method: as §1

[7] = test system: multidrug-resistant Pseudomonas aeruginosa (PA); test: Multidrug-resistant Pseudomonas aeruginosa mouse model of pneumonia; assay type: in vivo; settings: NAV-AAR′ 38 and 64 mg/kg subcutaneous once daily for 6 days
Method: NAV-AAR′ is also active in a multidrug-resistant Pseudomonas aeruginosa (PA) mouse model of pneumonia. […] NAV-AAR′ was administered by subcutaneous injection once daily for 6 days. The antibiotic meropenem was ineffective against MDR PA in this model.

[8] = Stability in solution; assay type: physicochemical; settings: room temperature, protected from light
[9] = test system: alkaline phosphatase; test: Alkaline phosphatase substrate; assay type: in vitro ADME; settings: metabolized to active metabolite NAV-AAC′
[10] = Aqueous solubility
[11] = Solubility of ARF6 prodrugs in various vehicles (Table 4); assay type: physicochemical
[12] = test system: Plasmodium berghei ANKA; test: Mouse model of cerebral malaria; settings: NAV-B 42.75 mg/kg IP daily for 11 days from day 3; 14 days post-infection; dihydrochloride
From the text: Mice were infected with Plasmodium berghei ANKA on day 0. Treatment was initiated on day 3. […] Surviving mice were sacrificed on day 14.

[13] = test system: LPS-induced endotoxic shock; settings: LPS 25 mg/kg IP, peptide IV; cited from earlier work
[14] = biological target: T1, ARF6; settings: HMVEC-D cells; cited from earlier work
[15] = test system: VE-cadherin; settings: cited from earlier work
[16] = test system: vascular leak; settings: in vivo; cited from earlier work
[17] = Table 1, water, read-out: Solubility Water
[18] = aqueous buffer, Table 1, PBS pH 7.4, read-out: Solubility PBS pH 7.4
[19] = NAV-AAR′ 38 mg/kg or 64 mg/kg intravenous

## O=c1cc(-c2ccc([N+](=O)[O-])cc2O)n2nc(Cc3ccccc3)c(-c3ccc(Cl)cc3)c2[nH]1 [NAV-A, 2-Benzyl-3-(4-chlorophenyl)-7-(2-hydroxy-4-nitro-phenyl)-4H-pyrazolo[1,5-a]pyrimidin-5-one]
[1]; Table 1, read-out: ARF6 IC50
  IC50: 2700 nM
[2]; [17]
  solubility: 35 µM
[2]; [18]
  solubility: 8 µM
[3]; 30 mg/kg IP, T = 0
  percent reduction in LPS-induced increase in BALF cell count: 57 ± 9%
  percent reduction in LPS-induced increase in BALF protein: 36 ± 13%
[3]; 30 mg/kg IP, T = 3
  percent reduction in LPS-induced increase in BALF cell count: 55 ± 3%
  percent reduction in LPS-induced increase in BALF protein: 23 ± 12%
[3]; 60 mg/kg IP, T = 0
  percent reduction in LPS-induced increase in BALF cell count: 95 ± 4%
  percent reduction in LPS-induced increase in BALF protein: 46 ± 24%
[3]; 60 mg/kg IP, T = 3
  percent reduction in LPS-induced increase in BALF cell count: 91 ± 1%
  percent reduction in LPS-induced increase in BALF protein: 55 ± 6%
[3]; NAV-A IP
  BALF total protein: Reductions
[3]; NAV-A IP 60 mg/kg (T=0), 30 mg/kg (T=3), 60 mg/kg (T=3)
  total number of cells in BALF: significant decreases
[4]; NAV-A 30 mg/kg IP once daily
  appearance and weight gain of treated mice: appeared healthy with normal weight gain
[4]; NAV-A 30 mg/kg IP once daily for seven days, from 3 h post infection, DMA/PEG300 vehicle
  survival: 50%
[5]; NAV-A after IV NAV-B, rats, first time point measured
  time of highest plasma concentration observed: five
[5]; after administration of NAV-B
  exposure of NAV-A: excellent exposure
[6]
  plasma levels of NAV-A: high and sustained plasma levels

## Cc1ccc(-c2c[nH]c3c(-c4ccc(Cl)cc4)c(Cc4ccccc4)nn3c2=O)c(OP(=O)([O-])[O-])c1.[Na+].[Na+] [NAV-AAR′]
[1]; Table 2, read-out: ARF6 IC50
  IC50: 1000 to 2000 nM
[1]; approximately, read-out: ARF6 IC50
  IC50: 1000 to 2000 nM
[2]; Table 2, water, read-out: Solubility Water
  solubility: > 50 mg/mL
[3]; [19]
  number of total (nucleated) cells in BALF: significant reductions; also recorded: decrease
  protein concentration in BALF: significant reductions; also recorded: decrease
[7]
  survival in MDR PA pneumonia: improve survival; also recorded: increase in survival
[8]
  stable in solution: up to 4 months
[9]
  substrate for alkaline phosphatase: substrate for alkaline phosphatase
[10]
  solubility: ≤ 50 mg/mL

## NCCCC[C@H](N)C(=O)Oc1cc([N+](=O)[O-])ccc1-c1cc(=O)[nH]c2c(-c3ccc(Cl)cc3)c(Cc3ccccc3)nn12 [NAV-B, [2-[2-benzyl-3-(4-chlorophenyl)-5-oxo-4H-pyrazolo[1,5-a]pyrimidin-7-yl]-5-nitro-phenyl] (2S)-2,6-diaminohexanoate dihydrochloride]
[1]; Table 1, read-out: ARF6 IC50
  IC50: 2600 nM
[1]; Table 4, read-out: ARF6 inhibition IC50
  IC50: 2600 nM
[2]; [17]
  solubility: 425 µM
[2]; [18]
  solubility: 1.7 µM
[11]; 20 mM Na citrate buffer, pH 3.1, aqueous buffer, kinetic from dmso stock, diluted from 10 mM solution in DMSO, read-out: Solubility (μM) 20 mM Na Citrate, pH 3.1
  solubility: 280 µM
[11]; 0.1% Tween 80 in D5W, aqueous with cosolvent or surfactant or cyclodextrin, kinetic from dmso stock, diluted from 10 mM solution in DMSO, read-out: Solubility (μM) 0.1% Tween 80 in D5W
  solubility: 42 µM
[11]; DPBS, pH 7.4, aqueous buffer, kinetic from dmso stock, diluted from 10 mM solution in DMSO, read-out: Solubility (μM) DPBS, pH 7.4
  solubility: 1 µM
[11]; saline or isotonic, thermodynamic from solid, D5W, prepared from powder, read-out: Solubility (μM) D5W Prepared from powder
  solubility: 14000 µM
[11]; water, kinetic from dmso stock, diluted from 10 mM solution in DMSO, read-out: Solubility (μM) H2O
  solubility: 400 µM
[3]; NAV-B 42.75 mg/kg IP
  concentration of cells in BALF: significant effect
  concentration of protein in BALF: significant effect
[3]; NAV-B 42.75 mg/kg IP at T=0 (equivalent to 30 mg/kg NAV-A), FIG. 10A marks a and b, dihydrochloride
  reduction in LPS-induced BALF cell count: 62% and 100%
[3]; NAV-B 43 mg/kg IP at T=0
  reduction in BALF cell count: 70%
[4]; NAV-B 42.75 mg/kg IP once daily for 7 days (equivalent to NAV-A 30 mg/kg), normal saline vehicle
  survival: 90%
[10]; acidic aqueous media, aqueous buffer
  solubility: > 50 mg/mL
[12]
  survival of malaria-infected mice: reduced mortality; also recorded: significant improvement in survival

## MyrARF6 2-13: myristoylated peptide composed of amino acids 2-13 of ARF6, understood to inhibit ARF nucleotide exchange (Myristoyl-GKVLSKIFGNKE; UniProt P62330 2-13, looked up, fragment)
[13]
  survival during endotoxemia: enhanced survival
[14]
  ARF6 activation: reduced ARF6 activation
[15]
  VE-cadherin at cell junctions: increased VE-cadherin at cell junctions
[16]
  leak of Evans blue dye from the blood into lungs and kidneys: prevented the leak
